The record followed here is article PMC6629894, “Ruthenium Complexes Containing Heterocyclic Thioamidates Trigger Caspase-Mediated Apoptosis Through MAPK Signaling in Human Hepatocellular Carcinoma Cells” (Frontiers in Oncology, 2019).

The test relates to JNK/SAPK (pT183/pY185). Kind of test: Phosflow analysis of phosphorylated MAPK. The test is classed as cell-based, human. The settings on record: HepG2, 10 μM. As to the method: Phosphorylated extracellular signal-regulated kinase (ERK), JNK/SAPK and p38 MAPK were quantified by flow cytometry as previously described ([26]). The cells were collected and resuspended in 0.5–1 mL of 4% formaldehyde and fixed for 10 min at 37°C. Then, the tubes were chilled on ice for 1 min. The cells were permeabilized by slowly adding ice-cold 100% methanol to the cooled cells while gently vortexing to a final concentration of 90% methanol and incubating for 30 min on ice. After washing with incubation buffer (0.5% bovine serum albumin in PBS), PE mouse anti-JNK/SAPK (pT183/pY185) (ID 562480), PE mouse anti-p38 MAPK (pT180/pY182) (ID 612565), PE mouse anti-ERK1/2 (pT202/pY204) (ID 612566) or PE mouse IgG1,κ isotype control (ID 555749) antibodies, all from BD Biosciences, were added and incubated for 1 h at room temperature. Finally, the cells were washed with PBS, and the cell fluorescence was measured by flow cytometry.
For all flow cytometry analyses, at least 10^4 events were recorded per sample using a BD LSRFortessa cytometer, BD FACSDiva Software (BD Biosciences) and FlowJo Software 10 (FlowJo Lcc; Ashland, OR, USA). Cellular debris was omitted from the analysis.

As for `Cn1ccnc1[S-].F[P-](F)(F)(F)(F)F.[Ru+2].c1ccc(-c2ccccn2)nc1.c1ccc(P(CCCCP(c2ccccc2)c2ccccc2)c2ccccc2)cc1` [Complex 1, [Ru(mmi)(bipy)(dppb)]PF6], the “phosphorylation of JNK/SAPK” value is reported as “no significant increase”.
